From patent US20230117034A1, “PYRAZOLOTRIAZINES” (Bayer Aktiengesellschaft, priority 2019, published 2023)

Key:
[1] = target: T1, CDK12 protein level in CAL-120 breast cancer cells (Homo sapiens, UniProt Q9NYV4); experiment: CDK12 protein level: Protein Simple (CDK12, CAL-120); format: cell-based; settings: CAL-120 cells, 18 h with compound, CDK12/HSP90 peak area ratio vs vehicle, median, read-out: CDK12 protein level in CAL-120 breast ca cells, DC50-[mol/l] (median)
T1 construct: endogenous in cells; host or cells: CAL-120 human breast cancer cells (DSMZ ACC 459)
Summary of the method: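 Cells grown 24 h, then treated with compounds for 18 h at 37° C against DMSO controls. Lysates (0.4 microgramms protein) run on Protein Simple 66-440 kDa size assay with CDK12 and HSP90 loading-control antibodies. CDK12/HSP90 peak-area ratios versus vehicle gave DC50 (50% reduction) by 4-parameter fit.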

[2] = system: BRCA1 mRNA expression in CAL-120 cells; experiment: qRT-PCR assay: BRCA1 mRNA expression in CAL-120; format: cell-based; settings: Homo sapiens; Inhibition of BRCA1 mRNA expression in CAL-120 cells; median; read-out: RTqPCR-CAL-120, IC50, BRCA1 (median)
Method: 3. qRT-PCR Assay: BRCA, ATR, MCL1 in MDA-MB-231, CAL-120
Tissue cultured human MDA-MB-231 human breast cancer cells were plated in 500 microL per well at 200,000 cells/well in a 24 well microtiter plate. After 24 h, the cells were exposed continuously for 24 h to test substances (substances were added with Tecan HP 0300 Dispenser). RNA was prepared using Qiagen RNeasy MiniKit (#74106), RNA was quantified using a NanoDrop Equipment, and 600 nano gamms of RNA was coverted to cDNA using a SuperScript VILO kit (Thermofisher #11755050) followed by qPCR amplification. BRCA1 and ATR gene expression was measured by RT-qPCR and normalised to GAPDH housekeeping gene expression. qPCR primer sets have been purchased from Thermo Fisher Scientific/Applied Biosystems: BRCA1, #Hs 01556193; ATR, #Hs 00992123; GAPDH, #Hs 03929097.

T1 sequence (Q9NYV4 whole entry): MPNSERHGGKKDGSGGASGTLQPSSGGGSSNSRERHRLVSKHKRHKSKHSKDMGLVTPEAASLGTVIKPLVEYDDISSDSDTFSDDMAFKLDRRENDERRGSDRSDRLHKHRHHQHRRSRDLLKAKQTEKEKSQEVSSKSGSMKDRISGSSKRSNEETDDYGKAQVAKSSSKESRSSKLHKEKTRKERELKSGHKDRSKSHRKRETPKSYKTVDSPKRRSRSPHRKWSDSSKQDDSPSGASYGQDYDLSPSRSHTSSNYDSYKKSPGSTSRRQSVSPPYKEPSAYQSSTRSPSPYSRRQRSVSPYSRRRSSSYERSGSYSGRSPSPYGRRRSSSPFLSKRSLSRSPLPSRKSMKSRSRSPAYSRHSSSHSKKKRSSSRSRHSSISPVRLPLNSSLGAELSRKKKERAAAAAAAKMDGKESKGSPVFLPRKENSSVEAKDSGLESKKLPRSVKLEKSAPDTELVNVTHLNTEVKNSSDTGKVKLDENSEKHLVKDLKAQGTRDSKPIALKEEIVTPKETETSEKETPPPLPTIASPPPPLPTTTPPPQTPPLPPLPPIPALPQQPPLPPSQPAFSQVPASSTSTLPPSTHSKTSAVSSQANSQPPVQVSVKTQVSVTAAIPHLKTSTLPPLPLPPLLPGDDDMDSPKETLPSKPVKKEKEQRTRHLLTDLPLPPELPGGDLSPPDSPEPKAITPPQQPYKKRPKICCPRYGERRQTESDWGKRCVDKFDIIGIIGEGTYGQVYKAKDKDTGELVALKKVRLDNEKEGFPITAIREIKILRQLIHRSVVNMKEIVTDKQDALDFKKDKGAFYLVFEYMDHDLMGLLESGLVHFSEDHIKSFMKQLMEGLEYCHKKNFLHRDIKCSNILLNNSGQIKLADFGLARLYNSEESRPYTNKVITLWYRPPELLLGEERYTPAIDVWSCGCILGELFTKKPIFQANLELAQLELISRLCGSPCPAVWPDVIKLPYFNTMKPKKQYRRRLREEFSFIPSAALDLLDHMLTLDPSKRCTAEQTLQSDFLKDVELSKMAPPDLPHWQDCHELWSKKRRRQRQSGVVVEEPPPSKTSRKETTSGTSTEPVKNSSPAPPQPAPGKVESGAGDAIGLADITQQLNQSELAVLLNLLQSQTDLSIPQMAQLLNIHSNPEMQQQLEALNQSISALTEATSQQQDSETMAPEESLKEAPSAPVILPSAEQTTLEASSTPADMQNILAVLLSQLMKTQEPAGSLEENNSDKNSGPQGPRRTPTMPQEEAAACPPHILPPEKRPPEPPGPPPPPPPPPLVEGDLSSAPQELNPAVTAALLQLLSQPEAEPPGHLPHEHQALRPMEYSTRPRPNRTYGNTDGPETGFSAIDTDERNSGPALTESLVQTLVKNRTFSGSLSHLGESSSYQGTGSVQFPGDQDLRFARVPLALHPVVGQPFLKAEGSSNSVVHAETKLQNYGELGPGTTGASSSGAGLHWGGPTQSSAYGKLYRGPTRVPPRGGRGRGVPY
T1 sequence (O75909 whole entry partner): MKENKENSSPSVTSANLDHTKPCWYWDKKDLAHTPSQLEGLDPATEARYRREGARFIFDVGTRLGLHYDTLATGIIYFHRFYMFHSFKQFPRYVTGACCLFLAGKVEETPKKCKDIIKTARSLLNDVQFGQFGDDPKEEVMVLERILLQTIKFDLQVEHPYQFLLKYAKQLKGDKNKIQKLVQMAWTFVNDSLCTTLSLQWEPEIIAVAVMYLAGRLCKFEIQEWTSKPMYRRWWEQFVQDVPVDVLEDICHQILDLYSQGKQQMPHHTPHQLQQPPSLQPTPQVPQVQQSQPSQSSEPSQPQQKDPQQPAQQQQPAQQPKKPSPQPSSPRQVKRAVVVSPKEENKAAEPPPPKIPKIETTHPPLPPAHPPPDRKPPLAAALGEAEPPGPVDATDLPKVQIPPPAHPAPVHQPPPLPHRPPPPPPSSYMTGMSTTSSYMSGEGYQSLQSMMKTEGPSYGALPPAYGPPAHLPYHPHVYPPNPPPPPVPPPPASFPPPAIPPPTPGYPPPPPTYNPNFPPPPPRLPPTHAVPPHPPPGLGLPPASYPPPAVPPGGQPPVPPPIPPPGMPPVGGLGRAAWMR

| DC50 [1] | IC50 [2] | Compound |
| --- | --- | --- |
| < 1 nM |  | Fc1ccc2[nH]c(CNc3nc(N4CCOCC4)nc4c(Br)cnn34)nc2c1F [Example 25, 8-bromo-N-[(4,5-difluoro-1H-benzimidazol-2-yl)methyl]-2-(morpholin-4-yl)pyrazolo[1,5-a][1,3,5]triazin-4-amine] |
| 9.33 nM | 34.5 nM | Brc1cnn2c(NCc3nnc(-c4ccccc4)[nH]3)nc(N3CCOCC3)nc12 [Example 24, 8-bromo-2-(morpholin-4-yl)-N-[(5-phenyl-4H-1,2,4-triazol-3-yl)methyl]pyrazolo[1,5-a][1,3,5]triazin-4-amine] |

The next lines start with the compound.

| Compound | DC50 [1] | IC50 [2] |
| --- | --- | --- |
| Brc1cnn2c(NCc3ncc(-c4ccccc4)[nH]3)nc(N3CCOCC3)nc12 [Example 23, 8-bromo-2-(morpholin-4-yl)-N-[(5-phenyl-1H-imidazol-2-yl)methyl]pyrazolo[1,5-a][1,3,5]triazin-4-amine] | < 1 nM |  |
| Cc1ccnc2[nH]c(CNc3nc(N4CCOCC4)nc4c(Br)cnn34)nc12 [Example 20, 8-bromo-N-[(7-methyl-3H-imidazo[4,5-b]pyridin-2-yl)methyl]-2-(morpholin-4-yl)pyrazolo[1,5-a][1,3,5]triazin-4-amine] | 2.6 nM | 17.7 nM |
| CC1CN(C)CCN1c1nc(NCc2nc3ccccc3[nH]2)n2ncc(Br)c2n1 (single isomer, unassigned; enantiomer 1) [Example 260, N-(1H-benzimidazol-2-ylmethyl)-8-bromo-2-[(2R or S)-2,4-dimethylpiperazin-1-yl]pyrazolo[1,5-a][1,3,5]triazin-4-amine (Enantiomer 1)] | < 1 nM |  |
| Brc1cnn2c(NCc3nc4c([nH]3)CCCC4)nc(N3CCOCC3)nc12 [Example 21, 8-bromo-2-(morpholin-4-yl)-N-[(4,5,6,7-tetrahydro-1H-benzimidazol-2-yl)methyl]pyrazolo[1,5-a][1,3,5]triazin-4-amine] | > 100 nM | 211 nM |
| Brc1cnn2c(NCc3nc4ccncc4[nH]3)nc(N3CCOCC3)nc12 [Example 22, 8-bromo-N-[(3H-imidazo[4,5-c]pyridin-2-yl)methyl]-2-(morpholin-4-yl)pyrazolo[1,5-a][1,3,5]triazin-4-amine] | 118 nM |  |
